Laboratory results taken from ChEMBL document CHEMBL1201862, “PubChem BioAssay data set” (2004).
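Tested at 5 concentrations; 48 h exposure; 96-well plates; endpoints linearly interpolated, else capped at highest concentration. Here, GI50 denotes the concentration required for 50% inhibition of growth.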 The source made the active and inactive calls. Rule as the data show it: active = GI50 up to about 1.1 µM and inactive = higher.

Legend:
Assay in all cases: NCI tumour cell line growth inhibition, 48 h
MCF7 = system: MCF7
MDA-N = system: MDA-N
DU-145 = system: DU-145
Malme-3M = system: Malme-3M
NCI/ADR-RES = system: NCI/ADR-RES
NCI-H226 = system: NCI-H226
T47D = system: T47D
786-0 = system: 786-0
MDA-MB-435 = system: MDA-MB-435
SF-539 = system: SF-539
HOP-62 = system: HOP-62
HCT-15 = system: HCT-15
RXF 393 = system: RXF 393
SNB-19 = system: SNB-19
UO-31 = system: UO-31
M14 = system: M14
EKVX = system: EKVX
OVCAR-8 = system: OVCAR-8
SF-268 = system: SF-268
BT-549 = system: BT-549

SMILES | GI50 (MCF7) | GI50 (MDA-N) | GI50 (DU-145) | GI50 (Malme-3M) | GI50 (NCI/ADR-RES) | GI50 (NCI-H226) | GI50 (T47D) | GI50 (786-0) | GI50 (MDA-MB-435) | GI50 (SF-539) | GI50 (HOP-62) | GI50 (HCT-15) [µM] | GI50 (RXF 393) | GI50 (SNB-19) | GI50 (UO-31) | GI50 (M14) | GI50 (EKVX) | GI50 (OVCAR-8) | GI50 (SF-268) | GI50 (BT-549)
CC(=O)c1c(C)n(C)c2c1nnc1ccccc12 | 26.5 µM (inactive) | 67.9 µM (inactive) | 80.5 µM (inactive) | 39.5 µM (inactive) | 46.5 µM (inactive) | 31.6 µM (inactive) | > 100 µM (inactive) | 36 µM (inactive) | 61.7 µM (inactive) | 34.8 µM (inactive) | 55.2 µM (inactive) | 42.1 | 40.2 µM (inactive) | 55.5 µM (inactive) | 3.15 µM (inactive) | 67.8 µM (inactive) | 12.8 µM (inactive) | 43.5 µM (inactive) | 34.1 µM (inactive) | 71.3 µM (inactive)
C=CCC(C(=O)O)c1ccccc1 (centres undefined) | > 100 µM (inactive) | > 100 µM (inactive) | > 100 µM (inactive) | > 100 µM (inactive) | > 100 µM (inactive) | > 100 µM (inactive) | > 100 µM (inactive) | > 100 µM (inactive) | > 100 µM (inactive) | > 100 µM (inactive) | > 100 µM (inactive) | > 100 | > 100 µM (inactive) | > 100 µM (inactive) | > 100 µM (inactive) | > 100 µM (inactive) | > 100 µM (inactive) | > 100 µM (inactive) | > 100 µM (inactive) | > 100 µM (inactive)
O=[N+]([O-])C(/C=C(\Cl)[N+](=O)[O-])=C(Nc1ccccc1)Nc1ccccc1 | 0.843 µM (active) | 5.58 µM (inactive) | 17.1 µM (inactive) | 8.67 µM (inactive) | 7.93 µM (inactive) |  | 7.43 µM (inactive) | 3.7 µM (inactive) | 5 µM (inactive) | 11.2 µM (inactive) |  | 8.26 | 4.65 µM (inactive) | 17.5 µM (inactive) | 12.1 µM (inactive) | 9.84 µM (inactive) | 13.5 µM (inactive) | 8.41 µM (inactive) | 14.3 µM (inactive) | 7.24 µM (inactive)
O=C(CC(=O)Nc1ccccc1)NNC(Sc1ccccc1)c1cc(/N=N/c2ccc(Br)cc2)ccc1O (centres undefined) | 1.78 µM (inactive) | 2.41 µM (inactive) | 2.11 µM (inactive) | 4.26 µM (inactive) | 1.26 µM (inactive) | 0.444 µM (active) | 3.51 µM (inactive) | 0.802 µM (active) | 4.28 µM (inactive) | 1.66 µM (inactive) | 3.08 µM (inactive) | 0.678 | 2.37 µM (inactive) | > 10 µM (inactive) | 2.29 µM (inactive) | 0.973 µM (active) | 8.83 µM (inactive) |  | 0.587 µM (active) | 5.12 µM (inactive)
CCCCCCCCCCCCc1ccsc1-c1ccc(-c2ccc(-c3sccc3CCCCCCCCCCCC)s2)s1 | > 100 µM (inactive) | > 100 µM (inactive) | > 100 µM (inactive) |  | > 100 µM (inactive) | > 100 µM (inactive) | > 100 µM (inactive) | > 100 µM (inactive) | > 100 µM (inactive) | > 100 µM (inactive) | > 100 µM (inactive) | > 100 | > 100 µM (inactive) | > 100 µM (inactive) | > 100 µM (inactive) | > 100 µM (inactive) | > 100 µM (inactive) | > 100 µM (inactive) | > 100 µM (inactive) | > 100 µM (inactive)
CN(/N=C(\C(=O)O)c1ccccc1)C1=NCCN1 | > 100 µM (inactive) | > 100 µM (inactive) | > 100 µM (inactive) | > 100 µM (inactive) | > 100 µM (inactive) | > 100 µM (inactive) | > 100 µM (inactive) | > 100 µM (inactive) | > 100 µM (inactive) | > 100 µM (inactive) | > 100 µM (inactive) | > 100 | > 100 µM (inactive) |  | > 100 µM (inactive) |  | 83.6 µM (inactive) | > 100 µM (inactive) | > 100 µM (inactive) | 47.2 µM (inactive)
CNC(=O)C(C)C1C(=O)/C(=C(O)/C=C\C(C)=C\C(C)C2OC3(C)OC(C=CC34CO4)C2C)C(=O)N1C1CCC(O)C(C)O1 (centres undefined) | > 100 µM (inactive) | > 100 µM (inactive) | > 100 µM (inactive) | > 100 µM (inactive) | > 100 µM (inactive) |  | > 100 µM (inactive) | > 100 µM (inactive) | > 100 µM (inactive) | > 100 µM (inactive) | > 100 µM (inactive) | > 100 | > 100 µM (inactive) | > 100 µM (inactive) | > 100 µM (inactive) | > 100 µM (inactive) | > 100 µM (inactive) | > 100 µM (inactive) | > 100 µM (inactive) | > 100 µM (inactive)
CCOC(=O)/C=C/C(Br)=C(Br)/C=C/C(=O)OCC | 7.93 µM (inactive) | 10.3 µM (inactive) | 13.1 µM (inactive) | 3.4 µM (inactive) | 11.4 µM (inactive) | 29.5 µM (inactive) | 14.8 µM (inactive) | 3.01 µM (inactive) | 7.13 µM (inactive) |  | 17.9 µM (inactive) | 4.92 | 8.93 µM (inactive) | 17.5 µM (inactive) | 10.7 µM (inactive) | 13.3 µM (inactive) | 17.9 µM (inactive) | 4.79 µM (inactive) | 18 µM (inactive) | 5.62 µM (inactive)
Cc1cc(C)nc(NS(=O)(=O)c2ccc(NC(=O)c3cc([N+](=O)[O-])cc([N+](=O)[O-])c3)cc2)n1 | 55 µM (inactive) | > 100 µM (inactive) | > 100 µM (inactive) | 42.1 µM (inactive) | > 100 µM (inactive) | > 100 µM (inactive) | 49.4 µM (inactive) | > 100 µM (inactive) | > 100 µM (inactive) | 37 µM (inactive) | > 100 µM (inactive) | > 100 | > 100 µM (inactive) | > 100 µM (inactive) | > 100 µM (inactive) | 45.8 µM (inactive) |  | > 100 µM (inactive) | 44.4 µM (inactive) | > 100 µM (inactive)
O/N=C1/Nc2ccccc2C(=S)N2CSCC12 (centres undefined) | 52.5 µM (inactive) | 18.3 µM (inactive) | > 100 µM (inactive) | > 100 µM (inactive) | > 100 µM (inactive) | > 100 µM (inactive) | 54.2 µM (inactive) | 58.2 µM (inactive) | 19.4 µM (inactive) |  | > 100 µM (inactive) | > 100 | > 100 µM (inactive) | 50.4 µM (inactive) | > 100 µM (inactive) | 81.3 µM (inactive) | > 100 µM (inactive) | > 100 µM (inactive) | 78 µM (inactive) | > 100 µM (inactive)
CCOC(=O)C1=c2[nH]c3cccc4cccc(c43)n2C(=O)CC1c1ccccc1 (centres undefined) | > 100 µM (inactive) | > 100 µM (inactive) | > 100 µM (inactive) | > 100 µM (inactive) | > 100 µM (inactive) | > 100 µM (inactive) | > 100 µM (inactive) | > 100 µM (inactive) | > 100 µM (inactive) |  | > 100 µM (inactive) | > 100 | > 100 µM (inactive) | > 100 µM (inactive) | > 100 µM (inactive) | > 100 µM (inactive) | > 100 µM (inactive) | > 100 µM (inactive) | > 100 µM (inactive) | > 100 µM (inactive)
O=c1n(CCCN2CCOCC2)nc2n1-c1ccc3ccccc3c1SC2 | 76.7 µM (inactive) | 6.17 µM (inactive) | 87.9 µM (inactive) |  | 67.5 µM (inactive) | > 100 µM (inactive) | 61.8 µM (inactive) | 16 µM (inactive) | 49 µM (inactive) | 39.6 µM (inactive) | 52.2 µM (inactive) | 27.7 | 57.7 µM (inactive) | 52.6 µM (inactive) | 20.6 µM (inactive) |  | 89.7 µM (inactive) | 64.9 µM (inactive) |  | 30.7 µM (inactive)
COc1c(O)cc2c(c1O)C(=O)C(Cc1ccc(O)cc1)CO2 (centres undefined) | > 100 µM (inactive) | 32.1 µM (inactive) | > 100 µM (inactive) | > 100 µM (inactive) | 32.7 µM (inactive) |  | > 100 µM (inactive) | > 100 µM (inactive) | 28 µM (inactive) | 56.4 µM (inactive) | 94.6 µM (inactive) | 44 | > 100 µM (inactive) | > 100 µM (inactive) | > 100 µM (inactive) | > 100 µM (inactive) | > 100 µM (inactive) | 63.1 µM (inactive) | > 100 µM (inactive) | 46.7 µM (inactive)
CCc1nc(N)nc(N)c1-c1ccc(N2CCOCC2)c(N=[N+]=[N-])c1 | 71.3 µM (inactive) | 57.1 µM (inactive) | > 82.8 µM (inactive) |  | > 100 µM (inactive) | 98.2 µM (inactive) | > 92.7 µM (inactive) | 57.3 µM (inactive) | 55.1 µM (inactive) | 75.5 µM (inactive) | > 100 µM (inactive) | 20.3 | > 83.2 µM (inactive) | 38.3 µM (inactive) | > 100 µM (inactive) | 54.3 µM (inactive) | 66.7 µM (inactive) | 61.7 µM (inactive) | 44.7 µM (inactive) | > 78.2 µM (inactive)
CCN(CC)CCNc1ccc2nc(C)n3c4ccc(OC)cc4c(=O)c1c23 | 0.354 µM (active) | 1.41 µM (inactive) | 1.29 µM (inactive) | 5.33 µM (inactive) | 0.675 µM (active) | 0.316 µM (active) | 17.8 µM (inactive) | 0.558 µM (active) | 11.2 µM (inactive) | 1.91 µM (inactive) | 4.06 µM (inactive) | 1.22 | 4.07 µM (inactive) | 1.03 µM (active) | 3.08 µM (inactive) | 10.5 µM (inactive) | 1.69 µM (inactive) | 0.575 µM (active) | 0.979 µM (active) | 5.31 µM (inactive)
